How the values were obtained:
[1] = biological target: Calcium/calmodulin-dependent protein kinase type II subunit alpha (Homo sapiens, UniProt Q9UQM7); experiment: Inhibition of recombinant full length human CaMK2alpha using KKLNRTLSFAEPG as substrate incubated for 40 mins in presence of [gamma-33ATP] by radiometric scintillation counting analysis
[2] = biological target: Serine/threonine-protein kinase 32A (Homo sapiens, UniProt Q8WU08); experiment: Inhibition of recombinant human full length STK32A using casein as substrate incubated for 40 mins in presence of [gamma33P]ATP by radiometric scintillation counting analysis
Serine/threonine-protein kinase 32A, sequence (Q8WU08 whole entry): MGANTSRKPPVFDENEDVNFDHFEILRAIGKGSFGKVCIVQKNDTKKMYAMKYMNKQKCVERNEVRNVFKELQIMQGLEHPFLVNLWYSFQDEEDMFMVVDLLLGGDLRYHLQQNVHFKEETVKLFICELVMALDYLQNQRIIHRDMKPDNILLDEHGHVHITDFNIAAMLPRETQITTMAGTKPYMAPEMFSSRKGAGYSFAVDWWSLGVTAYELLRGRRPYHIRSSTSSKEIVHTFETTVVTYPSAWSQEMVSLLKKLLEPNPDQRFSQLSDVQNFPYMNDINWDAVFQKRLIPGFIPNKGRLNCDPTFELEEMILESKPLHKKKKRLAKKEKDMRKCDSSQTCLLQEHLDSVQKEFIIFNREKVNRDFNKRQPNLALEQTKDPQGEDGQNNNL

[3] = biological target: Serine/threonine-protein kinase Nek2 (Homo sapiens, UniProt P51955); experiment: Inhibition of recombinant full-length human NEK2 using myelin basic protein as substrate measured after 40 mins in presence of [gamma33P]ATP by radiometric scintillation counting analysis
[4] = biological target: Macrophage colony-stimulating factor 1 receptor (Homo sapiens, UniProt P07333); experiment: Inhibition of recombinant human FMS (538 to end residues) using KKKSPGEYVNIEF as substrate after 40 mins in presence of [gamma-33ATP] by radiometric scintillation counting analysis
[5] = biological target: Protein kinase C beta type (Homo sapiens, UniProt P05771); experiment: Inhibition of recombinant human PKCbeta2 (2 to end residues) using histone H1 as substrate incubated for 40 mins in presence of [gamma33P]ATP by radiometric scintillation counting analysis
Aurora kinase C = Aurora kinase C (Homo sapiens, UniProt Q9UQB9); experiment: Inhibition of human recombinant AURORA-C (35 to end residues) using AKRRRLSSLRA as substrate incubated for 40 mins in presence of [gamma-33ATP] by radiometric scintillation counting analysis
Aurora kinase C, sequence (Q9UQB9 whole entry): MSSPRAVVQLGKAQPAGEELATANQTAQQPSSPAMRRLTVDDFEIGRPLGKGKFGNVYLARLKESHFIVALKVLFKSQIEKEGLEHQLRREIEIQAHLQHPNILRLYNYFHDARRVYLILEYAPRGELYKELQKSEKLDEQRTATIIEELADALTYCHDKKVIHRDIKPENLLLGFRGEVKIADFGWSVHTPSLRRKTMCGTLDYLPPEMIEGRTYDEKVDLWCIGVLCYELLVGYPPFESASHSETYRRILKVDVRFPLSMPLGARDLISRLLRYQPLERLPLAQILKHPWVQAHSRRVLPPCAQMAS

[6] = biological target: Interleukin-1 receptor-associated kinase 1 (Homo sapiens, UniProt P51617); experiment: Inhibition of human recombinant IRAK1 (194 to end residues) using myelin basic protein as substrate after 40 mins by [gamma-33ATP] by radiometric scintillation counting analysis
SRSF protein kinase 2 = SRSF protein kinase 2 (Homo sapiens, UniProt P78362); experiment: Inhibition of recombinant human SRPK2 (46 to end residues) using RSRSRSRSRSRSRSR as substrate incubated for 40 mins in presence of [gamma33P]ATP by radiometric scintillation counting analysis
SRSF protein kinase 2, sequence (P78362 whole entry): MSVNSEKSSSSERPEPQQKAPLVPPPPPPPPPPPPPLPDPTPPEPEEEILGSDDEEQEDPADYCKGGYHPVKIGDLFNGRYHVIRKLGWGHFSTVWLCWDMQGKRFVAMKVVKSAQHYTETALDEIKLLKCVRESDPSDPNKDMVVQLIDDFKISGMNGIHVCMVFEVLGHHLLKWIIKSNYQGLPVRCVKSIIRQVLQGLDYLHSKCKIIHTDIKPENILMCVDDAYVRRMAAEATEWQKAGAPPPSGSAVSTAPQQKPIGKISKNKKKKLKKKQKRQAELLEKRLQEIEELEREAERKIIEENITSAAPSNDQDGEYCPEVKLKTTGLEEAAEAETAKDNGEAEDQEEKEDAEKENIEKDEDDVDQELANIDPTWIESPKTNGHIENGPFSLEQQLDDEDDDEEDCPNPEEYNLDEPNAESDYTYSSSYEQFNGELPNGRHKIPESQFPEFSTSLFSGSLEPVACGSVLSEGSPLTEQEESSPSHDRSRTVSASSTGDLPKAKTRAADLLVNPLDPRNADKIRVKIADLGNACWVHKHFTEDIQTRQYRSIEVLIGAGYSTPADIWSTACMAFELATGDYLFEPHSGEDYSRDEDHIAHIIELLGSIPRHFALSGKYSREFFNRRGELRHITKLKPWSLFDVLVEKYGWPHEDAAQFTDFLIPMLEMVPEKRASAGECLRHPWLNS

Rhodopsin kinase GRK1 = Rhodopsin kinase GRK1 (Homo sapiens, UniProt Q15835); experiment: Inhibition of recombinant full length human GRK1 using KKKKERLLDDRHD as substrate after 40 mins in presence of [gamma-33ATP] by radiometric scintillation counting analysis
Ephrin type-A receptor 7 = Ephrin type-A receptor 7 (Homo sapiens, UniProt Q15375); experiment: Inhibition of recombinant human EphA7 (613 to 909 residues) using KTFCGTPEYLAPE as substrate measured after 40 mins in presence of [gamma33ATP] by radiometric scintillation counting analysis
[7] = biological target: Serine/threonine-protein kinase 4 (Homo sapiens, UniProt Q13043); experiment: Inhibition of recombinant full-length human MST1 using KKSRGDYMTMQIG as substrate measured after 40 mins in presence of [gamma33P]ATP by radiometric scintillation counting analysis
[8] = biological target: Death-associated protein kinase 2 (Homo sapiens, UniProt Q9UIK4); experiment: Inhibition of recombinant full length human DAPK2 using Calmodulin as substrate incubated 40 mins in presence of [gamma-33ATP] by radiometric scintillation counting analysis
Death-associated protein kinase 2, sequence (Q9UIK4 whole entry): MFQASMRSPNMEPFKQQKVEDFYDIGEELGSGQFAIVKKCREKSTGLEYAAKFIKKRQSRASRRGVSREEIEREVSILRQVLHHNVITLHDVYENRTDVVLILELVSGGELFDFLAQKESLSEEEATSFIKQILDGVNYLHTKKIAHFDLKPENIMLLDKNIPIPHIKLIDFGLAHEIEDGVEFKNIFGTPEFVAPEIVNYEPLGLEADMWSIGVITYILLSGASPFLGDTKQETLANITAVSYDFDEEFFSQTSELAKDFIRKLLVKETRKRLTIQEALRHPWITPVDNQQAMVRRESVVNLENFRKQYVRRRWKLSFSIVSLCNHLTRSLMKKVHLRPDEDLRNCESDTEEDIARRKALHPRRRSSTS

[9] = biological target: Dual specificity protein kinase CLK1 (Homo sapiens, UniProt P49759); experiment: Inhibition of recombinant human CLK1 (130 to end residues) using ERMRPRKRQGSVR as substrate incubated 40 mins in presence of [gamma-33ATP] by radiometric scintillation counting analysis
Dual specificity protein kinase CLK1, sequence (P49759 whole entry): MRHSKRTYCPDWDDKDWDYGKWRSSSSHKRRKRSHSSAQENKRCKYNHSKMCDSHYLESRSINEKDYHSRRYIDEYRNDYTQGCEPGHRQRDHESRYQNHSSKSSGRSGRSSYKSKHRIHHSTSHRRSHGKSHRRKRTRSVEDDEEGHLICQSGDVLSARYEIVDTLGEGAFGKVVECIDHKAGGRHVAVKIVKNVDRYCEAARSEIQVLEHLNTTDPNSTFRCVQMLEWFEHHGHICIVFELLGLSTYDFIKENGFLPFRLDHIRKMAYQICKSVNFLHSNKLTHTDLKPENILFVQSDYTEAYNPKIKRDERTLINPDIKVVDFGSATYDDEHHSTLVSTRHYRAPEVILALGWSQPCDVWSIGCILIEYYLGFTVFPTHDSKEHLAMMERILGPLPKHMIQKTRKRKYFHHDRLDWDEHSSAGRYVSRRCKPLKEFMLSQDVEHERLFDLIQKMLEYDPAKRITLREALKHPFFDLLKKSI

[10] = biological target: Dual specificity tyrosine-phosphorylation-regulated kinase 2 (Homo sapiens, UniProt Q92630); experiment: Inhibition of recombinant full length human DYRK2 using casein as substrate after 40 mins in presence of [gamma-33ATP] by radiometric scintillation counting analysis
Dual specificity tyrosine-phosphorylation-regulated kinase 2, sequence (Q92630 whole entry): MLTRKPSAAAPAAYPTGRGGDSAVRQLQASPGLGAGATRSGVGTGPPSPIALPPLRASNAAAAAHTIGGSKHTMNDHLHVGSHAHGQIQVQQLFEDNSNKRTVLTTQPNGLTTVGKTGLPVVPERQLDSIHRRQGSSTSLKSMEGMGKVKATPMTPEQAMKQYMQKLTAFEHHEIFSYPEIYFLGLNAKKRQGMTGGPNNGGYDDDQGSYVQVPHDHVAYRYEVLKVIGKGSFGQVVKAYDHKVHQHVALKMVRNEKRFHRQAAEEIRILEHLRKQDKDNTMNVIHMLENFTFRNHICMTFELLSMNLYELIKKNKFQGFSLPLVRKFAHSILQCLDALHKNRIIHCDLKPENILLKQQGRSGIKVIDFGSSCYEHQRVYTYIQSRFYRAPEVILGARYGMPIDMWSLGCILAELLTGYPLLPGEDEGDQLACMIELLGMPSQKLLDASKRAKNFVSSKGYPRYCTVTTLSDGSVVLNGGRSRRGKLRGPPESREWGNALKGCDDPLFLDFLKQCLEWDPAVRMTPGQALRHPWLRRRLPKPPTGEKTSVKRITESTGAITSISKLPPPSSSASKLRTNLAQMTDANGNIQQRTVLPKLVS

[11] = biological target: Insulin-like growth factor 1 receptor (Homo sapiens, UniProt P08069); experiment: Inhibition of human recombinant activated IGF1R (959 to end residues) using KKKSPGEYVNIEF as substrate after 40 mins by [gamma-33ATP] by radiometric scintillation counting analysis
[12] = biological target: Cyclin-dependent kinase 5/CDK5 activator 1 (Homo sapiens, UniProt Q00535); experiment: Inhibition of recombinant full length human CDK5/p25 using histone H1 as substrate incubated for 40 mins in presence of [gamma-33ATP] by radiometric scintillation counting analysis; format: protein-complex assay
Cyclin-dependent kinase 5/CDK5 activator 1, sequence (Q00535 whole entry): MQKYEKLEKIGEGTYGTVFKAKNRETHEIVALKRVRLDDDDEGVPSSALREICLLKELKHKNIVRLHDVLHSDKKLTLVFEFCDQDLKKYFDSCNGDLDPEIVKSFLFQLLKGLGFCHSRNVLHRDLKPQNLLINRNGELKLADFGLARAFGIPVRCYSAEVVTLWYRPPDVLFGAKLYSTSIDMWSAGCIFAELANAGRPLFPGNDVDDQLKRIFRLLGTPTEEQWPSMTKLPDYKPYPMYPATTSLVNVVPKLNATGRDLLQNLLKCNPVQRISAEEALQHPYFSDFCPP
Cyclin-dependent kinase 5/CDK5 activator 1, sequence (Q15078 whole entry, further chain): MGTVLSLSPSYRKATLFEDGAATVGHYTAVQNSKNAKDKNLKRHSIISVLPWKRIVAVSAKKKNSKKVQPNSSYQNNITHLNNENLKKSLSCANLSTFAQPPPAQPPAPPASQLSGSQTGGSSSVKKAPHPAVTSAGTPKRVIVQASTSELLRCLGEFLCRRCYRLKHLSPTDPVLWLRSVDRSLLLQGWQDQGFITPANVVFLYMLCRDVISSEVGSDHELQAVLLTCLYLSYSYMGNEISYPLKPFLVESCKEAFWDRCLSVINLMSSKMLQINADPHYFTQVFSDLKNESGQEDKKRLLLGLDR

CDK3/Cyclin E = CDK3/Cyclin E (Homo sapiens, UniProt Q00526); experiment: Inhibition of recombinant full length human CDK3/CyclinE using Histone H1 as substrate incubated for 40 mins in presence of [gamma-33ATP] by radiometric scintillation counting analysis; format: protein-complex assay
[13] = biological target: Tyrosine-protein kinase FRK (Homo sapiens, UniProt P42685); experiment: Inhibition of recombinant human PTK5 (218 to end residues) using GGEEEEYFELVKK as substrate incubated for 40 mins in presence of [gamma33P]ATP by radiometric scintillation counting analysis
[14] = biological target: Serine/threonine-protein kinase Sgk2 (Homo sapiens, UniProt Q9HBY8, S416D); experiment: Inhibition of recombinant human SGK2 S416D mutant (54 to end residues) using GRPRTSSFAEGKK as substrate incubated for 40 mins in presence of [gamma33P]ATP by radiometric scintillation counting analysis
[15] = Inhibition of human recombinant full length AURORA-A I31F mutant using kemptide as substrate incubated for 40 mins in presence of [gamma-33P]ATPand 10 uM ATP by radiometric scintillation counting analysis
PI3K p110 beta/p85 alpha = PI3K p110 beta/p85 alpha (Homo sapiens, UniProt P42338); experiment: Inhibition of recombinant human full length PI3K p110beta/p85alpha using phosphatidylinositol-4, 5-bisphosphate as substrate incubated for 40 mins in presence of [gamma33P]ATP by radiometric scintillation counting analysis; format: protein-complex assay
[16] = biological target: Tyrosine-protein kinase ABL1 (Homo sapiens, UniProt P00519, H396P); experiment: Inhibition of human recombinant ABL1 H396P mutant (27 to end residues) using EAIYAAPFAKKK as substrate incubated for 40 mins in presence of [gamma-33P]ATP by radiometry scintillation counting analysis assay
TGF-beta receptor type-1 = TGF-beta receptor type-1 (Homo sapiens, UniProt P36897, T204D); experiment: Inhibition of recombinant human TGFBR1 T204D mutant (200 to end residues) using casein as substrate incubated for 40 mins in presence of [gamma33P]ATP by radiometric scintillation counting analysis
[17] = biological target: cAMP-dependent protein kinase catalytic subunit PRKX (Homo sapiens, UniProt P51817); experiment: Inhibition of recombinant human full length PrKX using RRRLSFAEPG as substrate incubated for 40 mins in presence of [gamma33P]ATP by radiometric scintillation counting analysis
cAMP-dependent protein kinase catalytic subunit PRKX, sequence (P51817 whole entry): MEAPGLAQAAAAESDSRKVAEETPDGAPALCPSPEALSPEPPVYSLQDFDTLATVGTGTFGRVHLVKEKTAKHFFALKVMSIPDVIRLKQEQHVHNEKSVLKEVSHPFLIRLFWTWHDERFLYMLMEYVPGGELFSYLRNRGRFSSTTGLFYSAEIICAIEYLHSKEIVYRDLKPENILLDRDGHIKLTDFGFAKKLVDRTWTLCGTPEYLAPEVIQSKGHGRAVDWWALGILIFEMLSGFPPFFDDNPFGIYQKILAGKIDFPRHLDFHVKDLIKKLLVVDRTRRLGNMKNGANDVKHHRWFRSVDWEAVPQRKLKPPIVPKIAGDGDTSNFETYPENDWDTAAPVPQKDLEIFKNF

[18] = biological target: Tyrosine-protein kinase Lyn (Homo sapiens, UniProt P07948); experiment: Inhibition of recombinant full length human Lyn using poly(Glu, Tyr) 4:1 as substrate after 40 mins in presence of [gamma-33ATP] by radiometric scintillation counting analysis
Tyrosine-protein kinase Lyn, sequence (P07948 whole entry): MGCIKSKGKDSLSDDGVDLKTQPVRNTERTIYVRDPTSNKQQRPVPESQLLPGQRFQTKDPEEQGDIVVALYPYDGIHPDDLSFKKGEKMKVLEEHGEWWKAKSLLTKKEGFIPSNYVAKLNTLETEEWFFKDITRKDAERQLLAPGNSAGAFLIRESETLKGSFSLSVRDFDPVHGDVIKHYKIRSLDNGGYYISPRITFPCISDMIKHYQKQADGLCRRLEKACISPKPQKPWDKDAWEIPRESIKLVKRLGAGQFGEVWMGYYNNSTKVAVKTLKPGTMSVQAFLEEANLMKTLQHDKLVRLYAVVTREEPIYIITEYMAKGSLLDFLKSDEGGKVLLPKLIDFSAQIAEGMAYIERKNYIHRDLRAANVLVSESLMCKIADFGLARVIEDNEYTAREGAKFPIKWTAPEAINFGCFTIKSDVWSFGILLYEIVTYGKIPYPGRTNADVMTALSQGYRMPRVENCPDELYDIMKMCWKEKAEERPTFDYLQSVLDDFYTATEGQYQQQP

Calcium/calmodulin-dependent protein kinase type II subunit alpha, sequence (Q9UQM7 whole entry): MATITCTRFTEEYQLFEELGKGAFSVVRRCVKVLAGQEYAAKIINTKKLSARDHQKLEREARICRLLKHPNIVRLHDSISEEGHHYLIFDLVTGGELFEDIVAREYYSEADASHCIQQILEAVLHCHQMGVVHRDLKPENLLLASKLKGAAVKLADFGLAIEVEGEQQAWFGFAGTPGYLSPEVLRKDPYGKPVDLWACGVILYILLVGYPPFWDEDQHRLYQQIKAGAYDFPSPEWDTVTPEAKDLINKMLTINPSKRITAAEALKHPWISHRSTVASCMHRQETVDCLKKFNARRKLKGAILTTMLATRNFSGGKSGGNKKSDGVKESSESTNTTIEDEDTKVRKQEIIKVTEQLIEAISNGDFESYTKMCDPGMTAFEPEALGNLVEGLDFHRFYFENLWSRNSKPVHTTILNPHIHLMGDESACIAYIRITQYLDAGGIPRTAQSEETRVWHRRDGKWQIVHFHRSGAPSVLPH

CN(C)c1ccc(C(=O)Nc2cccc(NC(=O)COc3ccc4c(=O)ccoc4c3)c2)cc1
IC50 [1]: > 10 µM
IC50 [2]: > 10 µM
IC50 [3]: > 10 µM
IC50 [4]: > 10 µM
IC50 [5]: > 10 µM
IC50 (Aurora kinase C): > 10 µM
IC50 [6]: > 10 µM
IC50 (SRSF protein kinase 2): > 10 µM
IC50 (Rhodopsin kinase GRK1): > 10 µM
IC50 (Ephrin type-A receptor 7): > 10 µM
IC50 [7]: > 10 µM
IC50 [8]: > 10 µM
IC50 [9]: > 10 µM
IC50 [10]: > 10 µM
IC50 [11]: > 10 µM
IC50 [12]: > 10 µM
IC50 (CDK3/Cyclin E): > 10 µM
IC50 [13]: > 10 µM
IC50 [14]: > 10 µM
IC50 [15]: 1.07 µM
IC50 (PI3K p110 beta/p85 alpha): > 10 µM
IC50 [16]: > 10 µM
IC50 (TGF-beta receptor type-1): > 10 µM
IC50 [17]: > 10 µM
IC50 [18]: > 10 µM
